Data set [1] concerns human cytomegalovirus (HCMV). Kind of data set: anti-HCMV screening test (cytopathogenic effect) in HELF cell cultures. The format is cell-based. As to conditions: Human betaherpesvirus 5; HCMV-infected HELF cells, 96-well plates; concentration giving 50% inhibition of virus activity (CPE, Neutral Red). How it is done: The anti-HCMV action was determined in a screening test system in 96-well microtitre plates with the assistance of human embryonic lung fibroblasts (HELF) cell cultures. The affect of these substances on the extent of the cytopathogenic effect was determined by comparison with the reference substance ganciclovir (Cymevene^R sodium), a clinically approved anti-HCMV chemotherapeutic agent (EC50, corresponding to the effective concentration at which a 50% inhibition of virus activity is achieved).
The substances dissolved (50 mM) in DMSO (dimethyl sulphoxide) are investigated on microtitre plates (96-well) in duplicate determinations (4 substances/plate). Toxic and cytostatic effects of the substances are also detected thereby (CC50, corresponding to the concentration at which half the cells are destroyed owing to administration of the substance). […]
After this time, the cell lawn in the virus controls free of substance, starting from 50-100 infectious centres, is completely destroyed by the cytopathogenic effect of the HCMV (100% CPE). After staining with Neutral Red and fixing with formalin/methanol, the plates are evaluated using a projection microscope (plaque viewer).
A general note: Cytopathic effects are the visible damage that an infection or toxin causes in cultured cells.

The nature of data set [2]: toxic and cytostatic effects on HELF cells in the anti-HCMV screening test. The format is cell-based. The settings on record: human, concentration at which half the cells are destroyed. How it is done:
The substances dissolved (50 mM) in DMSO (dimethyl sulphoxide) are investigated on microtitre plates (96-well) in duplicate determinations (4 substances/plate). Toxic and cytostatic effects of the substances are also detected thereby (CC50, corresponding to the concentration at which half the cells are destroyed owing to administration of the substance). After the appropriate substance dilutions (1:2) on the microtitre plate, a suspension of 50-100 HCMV-infected HELF cells and […] uninfected HELF cells in Eagle's MEM with 10% fetal calf serum are put in each well, and the plates are incubated at 37° C. in a CO2 incubator for several days. After this time, the cell lawn in the virus controls free of substance, starting from 50-100 infectious centres, is completely destroyed by the cytopathogenic effect of the HCMV (100% CPE). After staining with Neutral Red and fixing with formalin/methanol, the plates are evaluated using a projection microscope (plaque viewer).

In patent publication US6498183B1, “Substituted indole sulfonamides as anitviral agents” (Bayer Aktiengesellschaft, priority 1999, dated 2002) one finds EC50 and CC50 data, which are given here for two compounds.

Compound `CCn1ccc2cc(S(=O)(=O)Nc3cccc(NC(=O)C(C)(C)CF)c3)ccc21` [Example 1, N-[(N-Ethylindole)-5-sulphonyl]-N′-(3-fluoro-2,2-dimethylpropanoyl)-1,3-diamino-benzene] registered an EC50 in data set [1] of 0.055 µM. In data set [2], this compound returned a CC50 of 15.6 µM.
The like results for `CC(=O)n1ccc2cc(S(=O)(=O)Nc3ccc(C(=O)NC(C)(C)C)cc3)ccc21` [Example 2, 4-[N-Acetylindole-5-sulphonylamino]-N-(tert-butyl)benzamide] were, in that order, 0.39 µM and 86 µM.

As a reminder, the EC50 is the concentration at which the effect is half-maximal. Lower therefore signals an effect from little substance. What is called CC50 is the concentration that lowers cell viability or growth by half.
